Molecular target: mTOR/GbL/Raptor (mTORC1) (Homo sapiens, UniProt P42345)
Assay: mTOR/GbL/Raptor (mTORC1) ELISA assay
Assay type: biochemical
Settings: phosphorylation of 4E-BP1; 0.2 nM mTORC1, 10 μM ATP; read-out: IC50 in this assay (mTORC1 ELISA)
Outline: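 ELISA read-out: phospho-4E-BP1 captured on Ni-chelate plates and detected with anti-phospho antibody plus HRP-anti-IgG luminescence. The kinase step ran 120 min at ambient temperature with 0.2 nM human mTORC1, 10 µM ATP, 50 nM His-4E-BP1, 10 mM MnCl2, pH 7.2 HEPES.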

| SMILES | IC50 [µM] |
| --- | --- |
| COc1ccc2c(N3CCOc4ccc(-c5ccc6c(c5)CC(=O)N6)cc4C3)nc(C)nc2c1 [Example 524, 5-{4-[2-methyl-7-(methyloxy)quinazolin-4-yl]-2,3,4,5-tetrahydro-1,4-benzoxazepin-7-yl}-1,3-dihydro-2H-indol-2-one] | 1 to 2 |
| Cc1nc2c(C)cc(-c3ccc4c(c3)CN(c3ncnc5cccnc35)CCO4)cc2[nH]1 [Example 214, 7-(2,4-dimethyl-1H-benzimidazol-6-yl)-4-pyrido[3,2-d]pyrimidin-4-yl-2,3,4,5-tetrahydro-1,4-benzoxazepine] | 0.25 to 1 |
| c1ccc2c(N3CCOc4ccc(-c5ccc6nc(C7CNC7)[nH]c6c5)cc4C3)ccnc2c1 [Example 201, 7-(2-azetidin-3-yl-1H-benzimidazol-6-yl)-4-quinolin-4-yl-2,3,4,5-tetrahydro-1H-benzoxazepine] | 1 to 2 |
| CCN(CC)Cc1nc(C)c(C(C)C)c(N2CCOc3ccc(-c4ccc5nc(C)[nH]c5c4)cc3C2)n1 [Example 685, N-ethyl-N-({4-methyl-6-[7-(2-methyl-1H-benzimidazol-5-yl)-2,3-dihydro-1,4-benzoxazepin-4(5H)-yl]-5-(1-methylethyl)pyrimidin-2-yl}methyl)ethanamine] | 0.05 to 0.25 |
| COc1ccc2c(N3CCOc4ccc(-c5cccc(C(=O)O)c5)cc4C3)nc(C)nc2c1 [Example 456, 3-{4-[2-methyl-7-(methyloxy)quinazolin-4-yl]-2,3,4,5-tetrahydro-1,4-benzoxazepin-7-yl}benzoic acid] | ≥ 2 |
| Cc1nc2cc(-c3ccc4c(c3)CN(c3nc(CN(C)C)ncc3C(C)C)CCO4)ccc2[nH]1 [Example 612, N,N-dimethyl-1-{4-[7-(2-methyl-1H-benzimidazol-5-yl)-2,3-dihydro-1,4-benzoxazepin-4(5H)-yl]-5-(1-methylethyl)pyrimidin-2-yl}methanamine] | 0.05 to 0.25 |
| Nc1nc2ncc(-c3ccc4c(c3)CN(c3ncnc5cccnc35)CCO4)cc2[nH]1 [Example 227, 6-(4-pyrido[3,2-d]pyrimidin-4-yl-2,3,4,5-tetrahydro-1,4-benzoxazepin-7-yl)-1H-imidazo[4,5-b]pyridin-2-amine] | 0.05 to 0.25 |
| COc1ccc(-c2ccc3c(c2)CN(c2nc(CN(C)C)nc4c2CC(C)(C)CC4)CCO3)cc1C(C)=O [Example 650, 1-[5-(4-{2-[(dimethylamino)methyl]-6,6-dimethyl-5,6,7,8-tetrahydroquinazolin-4-yl}-2,3,4,5-tetrahydro-1,4-benzoxazepin-7-yl)-2-(methyloxy)phenyl]ethanone] | 0.05 to 0.25 |
| CCNc1nc2ccc(-c3ccc4c(c3)CN(c3ccnc5cc(F)ccc35)CCO4)cc2[nH]1 [Example 268, N-ethyl-6-[4-(7-fluoroquinolin-4-yl)-2,3,4,5-tetrahydro-1,4-benzoxazepin-7-yl]-1H-benzimidazol-2-amine] | 0.05 to 0.25 |
| COc1cc2nccc(N3CCOc4ccc(-c5cnc6nc(N)[nH]c6c5)cc4C3)c2cc1OC [Example 188, 6-{4-[6,7-bis(methyloxy)quinolin-4-yl]-2,3,4,5-tetrahydro-1,4-benzoxazepin-7-yl}-1H-imidazo[4,5-b]pyridin-2-amine] | 0.05 to 0.25 |
| COc1cc2ncnc(N3CCOc4ccc(-c5ccc6nc(C)[nH]c6c5)cc4C3)c2cc1I [Example 37, 4-[6-iodo-7-(methyloxy)quinazolin-4-yl]-7-(2-methyl-1H-benzimidazol-6-yl)-2,3,4,5-tetrahydro-1,4-benzoxazepine] | 0.01 to 0.05 |
| CC1(C)CCc2ncnc(N3CCOc4ccc(-c5cnc(N)c(S(=O)(=O)NCC(O)CN)c5)cc4C3)c2C1 (centres unmarked) [Example 412, 2-amino-N-(3-amino-2-hydroxypropyl)-5-[4-(6,6-dimethyl-5,6,7,8-tetrahydroquinazolin-4-yl)-2,3,4,5-tetrahydro-1,4-benzoxazepin-7-yl]pyridine-3-sulfonamide] | 0.01 to 0.05 |
| COC(=O)Nc1nc2ccc(-c3ccc4c(c3)CN(c3ccnc5ccccc35)CCO4)cc2[nH]1 [Example 114, methyl [6-(4-quinolin-4-yl-2,3,4,5-tetrahydro-1,4-benzoxazepin-7-yl)-1H-benzimidazol-2-yl]carbamate] | 0.25 to 1 |
| CCC(N)CNS(=O)(=O)c1cc(-c2ccc3c(c2)CN(c2ncnc4c2CC(C)(C)CC4)CCO3)cnc1N (centres unmarked) [Example 408, 2-amino-N-(2-aminobutyl)-5-[4-(6,6-dimethyl-5,6,7,8-tetrahydroquinazolin-4-yl)-2,3,4,5-tetrahydro-1,4-benzoxazepin-7-yl]pyridine-3-sulfonamide] | 0.01 to 0.05 |
| CCc1c(C)nc(CN(C)C)nc1N1CCOc2ccc(-c3cnc4sc(N)nc4c3)cc2C1 [Example 662, 6-(4-{2-[(dimethylamino)methyl]-5-ethyl-6-methylpyrimidin-4-yl}-2,3,4,5-tetrahydro-1,4-benzoxazepin-7-yl)[1,3]thiazolo[5,4-b]pyridin-2-amine] | 0.05 to 0.25 |
| CC1(C)CCc2ncnc(N3CCOc4ccc(-c5cnc(Nc6ccccc6)c(NS(C)(=O)=O)c5)cc4C3)c2C1 [Example 629, N-{5-[4-(6,6-dimethyl-5,6,7,8-tetrahydroquinazolin-4-yl)-2,3,4,5-tetrahydro-1,4-benzoxazepin-7-yl]-2-(phenylamino)pyridin-3-yl}methanesulfonamide] | 0.25 to 1 |

Results, then the molecule that gave them:

| IC50 [µM] | SMILES |
| --- | --- |
| 0.01 to 0.05 | CC1(C)CCc2ncnc(N3CCOc4ccc(-c5cnc(N)c(S(=O)(=O)N6CC[C@@H](O)C6)c5)cc4C3)c2C1 [Example 305, (3R)-1-({2-amino-5-[4-(6,6-dimethyl-5,6,7,8-tetrahydroquinazolin-4-yl)-2,3,4,5-tetrahydro-1,4-benzoxazepin-7-yl]pyridin-3-yl}sulfonyl)pyrrolidin-3-ol] |
| ≤ 0.01 | Cc1nc2cc(-c3ccc4c(c3)CN(c3nc(CN5CCCC5)nc5c3CC(C)(C)CC5)CCO4)ccc2[nH]1 [Example 500, 4-[6,6-dimethyl-2-(pyrrolidin-1-ylmethyl)-5,6,7,8-tetrahydroquinazolin-4-yl]-7-(2-methyl-1H-benzimidazol-5-yl)-2,3,4,5-tetrahydro-1,4-benzoxazepine] |
| ≤ 0.01 | Cc1nc2ncc(-c3ccc4c(c3)CN(c3nc(CNCC(F)F)nc5c3CC(C)(C)CC5)CCO4)cc2[nH]1 [Example 592, N-({6,6-dimethyl-4-[7-(2-methyl-1H-imidazo[4,5-b]pyridin-6-yl)-2,3-dihydro-1,4-benzoxazepin-4(5H)-yl]-5,6,7,8-tetrahydroquinazolin-2-yl}methyl)-2,2-difluoroethanamine] |
| 0.01 to 0.05 | Cc1nc2ccc(-c3ccc4c(c3)CN(c3ccnc(C)c3Cc3ccccc3)CCO4)cc2[nH]1 [Example 101, 7-(2-methyl-1H-benzimidazol-6-yl)-4-[2-methyl-3-(phenylmethyl)pyridin-4-yl]-2,3,4,5-tetrahydro-1,4-benzoxazepine] |
| ≤ 0.01 | CC1(C)CCc2ncnc(N3CCOc4ccc(-c5cnc(N)c(S(=O)(=O)N6CCNCC6)c5)cc4C3)c2C1 [Example 514, 5-[4-(6,6-dimethyl-5,6,7,8-tetrahydroquinazolin-4-yl)-2,3,4,5-tetrahydro-1,4-benzoxazepin-7-yl]-3-(piperazin-1-ylsulfonyl)puridin-2-amine] |
| 0.01 to 0.05 | CNC1CN(S(=O)(=O)c2cc(-c3ccc4c(c3)CN(c3ncnc5c3CC(C)(C)CC5)CCO4)cnc2N)C1 [Example 519, 5-[4-(6,6-dimethyl-5,6,7,8-tetrahydroquinazolin-4-yl)-2,3,4,5-tetrahydro-1,4-benzoxazepin-7-yl]-3-{[3-(methylamino)azetidin-1-yl]sulfonyl}pyridin-2-amine] |
| 0.01 to 0.05 | CC[C@H]1CCc2c(ncnc2N2CCOc3ccc(-c4cnc(N)c(S(=O)(=O)N5CC[C@@H](N)C5)c4)cc3C2)C1 [Example 451, 3-{[(3R)-3-aminopyrrolidin-1-yl]sulfonyl}-5-{4-[(7S)-7-ethyl-5,6,7,8-tetrahydroquinazolin-4-yl]-2,3,4,5-tetrahydro-1,4-benzoxazepin-7-yl}pyridin-2-amine] |
| 0.01 to 0.05 | CC1(C)CCc2ncnc(N3CCOc4ccc(-c5cnc(N)c(S(=O)(=O)NC[C@@H]6CCNC6)c5)cc4C3)c2C1 [Example 388, 2-amino-5-[4-(6,6-dimethyl-5,6,7,8-tetrahydroquinazolin-4-yl)-2,3,4,5-tetrahydro-1,4-benzoxazepin-7-yl]-N-[(3R)-pyrrolidin-3-ylmethyl]pyridine-3-sulfonamide] |
| 0.01 to 0.05 | CC1(C)CCc2ncnc(N3CCOc4ccc(-c5cnc(N)c(S(=O)(=O)N6CC7(CNC7)C6)c5)cc4C3)c2C1 [Example 432, 3-(2,6-diazaspiro[3.3]hept-2-ylsulfonyl)-5-[4-(6,6-dimethyl-5,6,7,8-tetrahydroquinazolin-4-yl)-2,3,4,5-tetrahydro-1,4-benzoxazepin-7-yl]pyridin-2-amine] |
| ≤ 0.01 | CCCc1nc2cc(-c3ccc4c(c3)CN(c3ncnc5c3CC(C)(C)CC5)CCO4)cnc2[nH]1 [Example 225, 4-(6,6-dimethyl-5,6,7,8-tetrahydroquinazolin-4-yl)-7-(2-propyl-3H-imidazo[4,5-b]pyridin-6-yl)-2,3,4,5-tetrahydro-1,4-benzoxazepine] |
| ≤ 0.01 | C=C[C@H]1CCCc2c(ncnc2N2CCOc3ccc(-c4cnc5nc(C)[nH]c5c4)cc3C2)C1 [Example 489, 4-[(8S)-8-ethenyl-6,7,8,9-tetrahydro-5H-cyclohept[d]pyrimidin-4-yl]-7-(2-methyl-1H-imidazo[4,5-b]pyridin-6-yl)-2,3,4,5-tetrahydro-1,4-benzoxazepine] |
| ≤ 0.01 | CC1(C)CCc2ncnc(N3CCOc4ccc(-c5ccc6nc(N)[nH]c6c5)cc4C3)c2C1 [Example 236, 6-[4-(6,6-dimethyl-5,6,7,8-tetrahydroquinazolin-4-yl)-2,3,4,5-tetrahydro-1,4-benzoxazepin-7-yl]-1H-benzimidazol-2-amine] |
| ≤ 0.01 | Cc1nc2cc(-c3ccc4c(c3)CN(c3nc([C@@H]5CCCN5)nc5c3CC(C)(C)CC5)CCO4)cnc2[nH]1 [Example 507, 4-{6,6-dimethyl-2-[(2S)-pyrrolidin-2-yl]-5,6,7,8-tetrahydroquinazolin-4-yl}-7-(2-methyl-3H-imidazo[4,5-b]pyridin-6-yl)-2,3,4,5-tetrahydro-1,4-benzoxazepine] |
